Measurements as given in paper PMC8496750, “Identification of the organic anion transporting polypeptides responsible for the hepatic uptake of the major metabolite of epyrifenacil, S‐3100‐CA, in mice” (Pharmacology Research & Perspectives, 2021).

Columns and labels:
[1] = set-up: method as in PMID 34908893; details: mice; 90‐day; cited from earlier work
[2] = target: T1, mouse Oatp1a1 (Mus musculus, UniProt Q9QXZ6); details: inhibitor at 100 μM
T1 sequence (Q9QXZ6 1-670): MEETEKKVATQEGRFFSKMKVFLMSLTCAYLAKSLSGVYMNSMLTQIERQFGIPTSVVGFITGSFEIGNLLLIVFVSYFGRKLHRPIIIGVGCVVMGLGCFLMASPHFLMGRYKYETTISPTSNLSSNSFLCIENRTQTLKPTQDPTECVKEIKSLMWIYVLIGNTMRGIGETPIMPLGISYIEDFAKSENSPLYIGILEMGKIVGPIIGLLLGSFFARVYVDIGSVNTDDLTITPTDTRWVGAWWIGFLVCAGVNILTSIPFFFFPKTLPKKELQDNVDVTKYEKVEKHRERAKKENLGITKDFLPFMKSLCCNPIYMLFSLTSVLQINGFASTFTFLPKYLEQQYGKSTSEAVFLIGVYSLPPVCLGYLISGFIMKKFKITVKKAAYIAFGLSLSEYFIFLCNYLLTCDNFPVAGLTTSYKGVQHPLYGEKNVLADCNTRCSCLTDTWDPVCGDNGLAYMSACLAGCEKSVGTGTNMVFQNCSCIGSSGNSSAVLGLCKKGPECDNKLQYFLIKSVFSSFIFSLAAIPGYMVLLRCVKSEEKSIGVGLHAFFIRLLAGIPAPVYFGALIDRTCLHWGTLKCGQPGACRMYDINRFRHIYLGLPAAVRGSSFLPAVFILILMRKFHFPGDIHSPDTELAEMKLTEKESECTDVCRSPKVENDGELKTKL
Procedure: (§1) 293FT cells were purchased from Thermo Fisher Scientific, Inc.. The cells were grown in Dulbecco's modified Eagle medium (supplemented with 4.5 g/L glucose and 2 mM L‐glutamine) at 37°C, 5% CO2, and 95% humidity. The cells were passaged 3 times per week by harvesting cells using trypsin and plating at a density of 1.0 × 10^4 cells/cm^2 in a 10 cm cell culture plate for maintenance culture. The 293FT cells were detached using trypsin and re‐seeded at a density of 2.5 × 10^4 cells/cm^2 in BioCoat™ Collagen I 6‐well plates (Corning Inc.) for transfection and then treated with 1.2 μg of plasmid vector and 3.2 μl of Lipofectamine™ 2000 Transfection Reagent (Thermo Fisher Scientific, Inc.) according to the manufacturer's instructions. After a 3‐h treatment, the transfection medium was replaced with a fresh cell culture medium and incubated at 37°C with 95% humidity and 5% CO2 until ready for the assay.
(§2) Transport experiments were conducted approximately 24 h post‐transfection. The experiments were initiated by aspirating culture medium and addition of pre‐warmed radiolabeled substrate solution (final 1.0% of acetonitrile or 0.9% of ethanol in phosphate‐buffered saline (PBS[−])) to each well. After a 10‐min incubation, cells were washed twice with 1 ml of ice‐cold PBS(−) and lysed with 700 μl of 1.0 M NaOH for 3 h or more at room temperature. The lysate was transferred to a 1.5‐ml tube, and neutralized with 350 μl of 2.0 M HCl and 350 μl of 2.0% sodium dodecyl sulfate (SDS) solution. From the lysate, 1.0 ml was transferred to a vial containing 10 ml of Emulsifier Scintillator Plus to measure the radioactivity in the LSC. The protein concentration of the cell lysate was also measured using a Pierce™ BCA Protein Assay Kit (Thermo Fisher Scientific, Inc.), which was used to normalize, according to the cell number, the radioactivity in the cell lysate extract. The protein assay was performed in duplicate. Each sample type was assayed in triplicate wells, and each run was performed twice. […] Each sample type was assayed in triplicate wells.

[3] = target: T2, mouse Oatp1a4 (Mus musculus, UniProt Q9EP96); assay: in vitro; details: 293FT cells transiently transfected with mouse Oatp1a4, probe radiolabeled S‐3100‐CA
T2 sequence (Q9EP96 1-670): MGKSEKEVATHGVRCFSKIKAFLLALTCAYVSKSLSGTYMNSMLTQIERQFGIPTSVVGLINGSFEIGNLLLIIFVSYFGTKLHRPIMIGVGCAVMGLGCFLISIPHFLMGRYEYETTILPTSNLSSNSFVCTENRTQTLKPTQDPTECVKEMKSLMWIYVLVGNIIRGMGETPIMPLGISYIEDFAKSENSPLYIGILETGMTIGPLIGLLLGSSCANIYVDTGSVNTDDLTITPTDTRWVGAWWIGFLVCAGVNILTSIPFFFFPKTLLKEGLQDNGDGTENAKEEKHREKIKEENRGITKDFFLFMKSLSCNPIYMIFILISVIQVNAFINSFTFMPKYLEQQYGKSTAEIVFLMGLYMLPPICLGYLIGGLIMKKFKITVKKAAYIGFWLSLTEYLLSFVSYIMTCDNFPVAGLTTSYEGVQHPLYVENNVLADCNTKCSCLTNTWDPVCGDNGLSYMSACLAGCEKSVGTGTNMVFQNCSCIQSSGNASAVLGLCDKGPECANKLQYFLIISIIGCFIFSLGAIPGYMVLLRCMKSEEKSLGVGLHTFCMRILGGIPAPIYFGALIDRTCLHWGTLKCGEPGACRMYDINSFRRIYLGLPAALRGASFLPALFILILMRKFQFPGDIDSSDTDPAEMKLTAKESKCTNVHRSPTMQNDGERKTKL
Procedure: as §1, §2

[4] = target: T1, mouse Oatp1a1; assay: in vitro; details: 293FT cells transiently transfected with mouse Oatp1a1, probe radiolabeled S‐3100‐CA
Procedure: as §1, §2

Row | SMILES | Hepatocyte injury [1] | Uptake of S‐3100‐CA, % of that by vehicle‐treated cells [2] | inhibition at 10 min, 10 µM [3] | inhibition at 10 min, 10 µM [4]
1 | CCOC(=O)COc1ncccc1Oc1cc(-n2c(=O)cc(C(F)(F)F)n(C)c2=O)c(F)cc1Cl [Epyrifenacil, ethyl[(3‐{2‐chloro‐4‐fluoro‐5‐[3‐methyl‐2,6‐dioxo‐4‐(trifluoromethyl)‐3,6‐dihydropyrimidin‐1(2H)‐yl]phenoxy}pyridin‐2‐yl)oxy]acetate] | produced hepatocyte injury | – | – | –
2 | CO[C@H]1/C=C/O[C@@]2(C)Oc3c(C)c(O)c4c(O)c(c(/C=N/N5CCN(C)CC5)c(O)c4c3C2=O)NC(=O)/C(C)=C\C=C\[C@H](C)[C@H](O)[C@@H](C)[C@@H](O)[C@@H](C)[C@H](OC(C)=O)[C@@H]1C [RIF, Rifampicin] | – | less than 40% | > 50% | > 50%
